Where “and” joins values, the source holds several entries; their conditions need not be identical. Equal entries are not always repeated. ± gives the uncertainty stated by the source.
Nc1ccccc1
Details	viscosity
293.15 K, 100 kPa	4.407 ± 0.2 mPa·s and 4.41 ± 0.35 mPa·s
293.15 K, 101 kPa	4.28 ± 0.05 mPa·s and 4.28 ± 0.04 mPa·s
293.15 K, 101.33 kPa	4.404 ± 0.048 mPa·s
293.35 K, 101 kPa	4.26 ± 0.05 mPa·s
298.15 K, 100 kPa	3.737 ± 0.17 mPa·s
298.15 K, 101.3 kPa	3.61 ± 0.09 mPa·s
298.15 K, 101.32 kPa	3.773 ± 0.0014 mPa·s
298.15 K, 101.33 kPa	3.62 ± 0.036 mPa·s
302.4 K, 101 kPa	5.537 mPa·s
302.75 K, 101 kPa	3.15 ± 0.03 mPa·s
303 K, 101 kPa	3.097 ± 0.079 mPa·s
303 K, 101.3 kPa	3.111 ± 0.082 mPa·s
303 K, 101.33 kPa	3.036 ± 0.31 mPa·s and 3.035 ± 0.31 mPa·s
303.15 K, 100 kPa	3.197 ± 0.14 mPa·s and 3.029 ± 0.035 mPa·s
303.15 K, 101.33 kPa	3.078 ± 0.025 mPa·s
308 K, 101 kPa	2.663 ± 0.068 mPa·s
308 K, 101.3 kPa	2.691 ± 0.071 mPa·s
308.1 K, 101 kPa	2.79 ± 0.063 mPa·s
308.15 K, 100 kPa	2.78 ± 0.12 mPa·s
308.15 K, 101 kPa	2.857 ± 0.29 mPa·s and 2.639 ± 0.028 mPa·s
308.15 K, 101.3 kPa	2.7 ± 0.07 mPa·s
308.15 K, 101.33 kPa	2.615 ± 0.053 mPa·s
313 K, 101 kPa	2.329 ± 0.06 mPa·s
313 K, 101.3 kPa	2.338 ± 0.062 mPa·s
313.15 K, 100 kPa	2.445 ± 0.11 mPa·s and 2.305 ± 0.027 mPa·s and 2.49 ± 0.2 mPa·s
313.15 K, 101.33 kPa	2.327 ± 0.018 mPa·s
318 K, 101 kPa	2.057 ± 0.053 mPa·s
318 K, 101.3 kPa	2.054 ± 0.055 mPa·s
318.15 K, 100 kPa	2.159 ± 0.096 mPa·s
318.15 K, 101 kPa	2.157 ± 0.22 mPa·s and 2.047 ± 0.025 mPa·s and 2.113 ± 0.023 mPa·s
323.15 K, 100 kPa	1.927 ± 0.085 mPa·s
323.15 K, 101 kPa	1.806 ± 0.12 mPa·s
323.15 K, 101.3 kPa	1.87 ± 0.05 mPa·s
323.15 K, 101.33 kPa	2.01 ± 0.02 mPa·s

CCCCOC(=O)c1ccccc1
viscosity [mPa·s]
Details	293.15 K	298.15 K	303.15 K	308.15 K	313.15 K	318.15 K	323.15 K
101 kPa	–	2.691 ± 0.085	–	2.208 ± 0.069	–	1.819 ± 0.057	–
101.33 kPa	2.835 ± 0.016	–	2.189 ± 0.013	–	1.73 ± 0.01	–	1.388 ± 0.009

CCCCCCCCNCCCCCCCC
Details	viscosity [mPa·s]
303.15 K, 101 kPa	3.665 ± 0.073

CC1OC(C)OC(C)O1 (stereo unspecified)
Details	viscosity [mPa·s]
293.15 K, 101.3 kPa	1.224 ± 0.023

CCNCC
Details	viscosity
293.15 K, 100 kPa	0.32 ± 0.03 mPa·s and 0.32 ± 0.01 mPa·s
293.15 K, 101.33 kPa	0.32 ± 0.009 mPa·s
298.15 K, 101 kPa	0.29 ± 0.003 mPa·s and 0.265 ± 0.002 mPa·s
303.15 K, 101.33 kPa	0.288 ± 0.008 mPa·s
308.15 K, 101 kPa	0.2466 ± 0.01 mPa·s
308.15 K, 101.33 kPa	0.274 ± 0.007 mPa·s
313.15 K, 100 kPa	0.26 ± 0.02 mPa·s and 0.26 ± 0.01 mPa·s
318.15 K, 100 kPa	0.248 ± 0.007 mPa·s
323.15 K, 100 kPa	0.237 ± 0.019 mPa·s and 0.237 ± 0.006 mPa·s

COCCOCCOCCO
viscosity
Details	293.15 K	298.15 K	303.15 K	308.15 K	313.15 K	318.15 K	323.15 K
101 kPa	7.211 ± 0.13 mPa·s	6.287 ± 0.13 mPa·s and 6.254 ± 0.11 mPa·s	5.412 ± 0.099 mPa·s	4.535 ± 0.097 mPa·s	–	3.726 ± 0.079 mPa·s	–
101.33 kPa	–	–	–	4.642 ± 0.11 mPa·s and 5.055 ± 0.13 mPa·s	4.074 ± 0.31 mPa·s and 4.08 ± 0.068 mPa·s	–	3.202 ± 0.31 mPa·s and 3.2 ± 0.053 mPa·s

C[NH+](CCO)CCO.O=C[O-]
101 kPa
Details	viscosity [mPa·s]
293.15 K	708.5 ± 27
298.15 K	491.4 ± 17
303.15 K	350 ± 11
313.15 K	190 ± 5
323.15 K	124.5 ± 2.9

CCCC(=O)OC
101 kPa
Details	viscosity [mPa·s]
298.15 K	0.546 ± 0.015
323.15 K	0.374 ± 0.01

ClCc1ccccc1
101 kPa
Details	viscosity [mPa·s]
298.15 K	1.377 ± 0.033
303.15 K	1.112 ± 0.01

CCC(O)CO (stereo unspecified)
viscosity [mPa·s]
Details	298.15 K	303.15 K	308.15 K	313.15 K	318.15 K	323.15 K
100 kPa	51.63 ± 1.1	37.66 ± 0.78	28.44 ± 0.59	21.59 ± 0.45	16.74 ± 0.35	13.22 ± 0.27
101 kPa	52.8 ± 0.27	38.71 ± 0.25	29.48 ± 0.19	22.86 ± 0.15	–	12.85 ± 0.77

NCCN
viscosity
Details	293.15 K	298.15 K	303.15 K	308.15 K	313.15 K	318.15 K	323.15 K
100 kPa	–	–	–	–	0.7611 ± 0.0066 mPa·s	–	–
101 kPa	1.52 ± 0.03 mPa·s and 1.62 ± 0.12 mPa·s and 1.54 ± 0.03 mPa·s	1.37 ± 0.03 mPa·s and 1.39 ± 0.03 mPa·s and 1.26 ± 0.034 mPa·s	1.16 ± 0.03 mPa·s and 1.18 ± 0.03 mPa·s and 1.299 ± 0.01 mPa·s (2×)	–	–	–	0.737 ± 0.02 mPa·s and 0.9042 ± 0.0074 mPa·s and 0.904 ± 0.007 mPa·s
101.3 kPa	–	–	1.29 ± 0.13 mPa·s	1.167 ± 0.12 mPa·s	1.06 ± 0.11 mPa·s	0.967 ± 0.097 mPa·s	–
101.33 kPa	–	–	1.299 ± 0.01 mPa·s	1.191 ± 0.01 mPa·s	1.08 ± 0.009 mPa·s	0.986 ± 0.008 mPa·s	0.904 ± 0.007 mPa·s

CCCC
viscosity [mPa·s]
Details	293.15 K	313.15 K
101 kPa	0.17 ± 0.01	0.143 ± 0.003
101.33 kPa	0.17 ± 0.0034	0.143 ± 0.0029

CC(C)(C)O
Details	viscosity
293.15 K, 101 kPa	3.925 ± 1 mPa·s
298 K, 101 kPa	3.41 ± 0.18 mPa·s and 4.324 ± 0.036 mPa·s
298.15 K, 100 kPa	4.396 ± 0.18 mPa·s
303 K, 101.33 kPa	3.268 ± 0.34 mPa·s
303.15 K, 101.3 kPa	3.318 ± 0.038 mPa·s and 3.318 ± 0.04 mPa·s
303.2 K, 101.33 kPa	3.333 ± 0.022 mPa·s and 3.333 ± 0.027 mPa·s
305 K, 101 kPa	3.076 ± 0.019 mPa·s
308 K, 101 kPa	2.333 mPa·s
308.15 K, 101.3 kPa	2.55 ± 0.015 mPa·s
308.15 K, 101.33 kPa	2.644 ± 0.27 mPa·s and 2.595 mPa·s and 2.546 ± 0.022 mPa·s
313 K, 101 kPa	2.102 ± 0.014 mPa·s
313.15 K, 101.3 kPa	2.047 ± 0.047 mPa·s
318 K, 101 kPa	1.702 ± 0.018 mPa·s
318.15 K, 101.33 kPa	1.889 ± 0.19 mPa·s and 1.726 mPa·s
323 K, 101 kPa	1.404 ± 0.0093 mPa·s
323.15 K, 100 kPa	1.418 ± 0.059 mPa·s
323.15 K, 101 kPa	1.421 ± 0.018 mPa·s and 1.423 ± 0.011 mPa·s and 1.415 ± 0.01 mPa·s

CN(CCO)CCO
viscosity
Details	293.15 K	298.15 K	313.15 K	323.15 K
101 kPa	101.2 ± 6.2 mPa·s	74.81 ± 4.5 mPa·s	37.9 ± 2 mPa·s and 34.04 ± 0.41 mPa·s	24.7 ± 1.3 mPa·s and 21.53 ± 0.27 mPa·s
101.33 kPa	–	77.19 ± 2.4 mPa·s and 77.19 ± 0.84 mPa·s	–	–

COCCOCCOCCOC
viscosity [mPa·s]
Details	298.15 K	308.15 K
101 kPa	1.979 ± 0.06	1.607 ± 0.05
101.33 kPa	1.95 ± 0.015	–

COP(=O)([O-])OC.Cn1cc[n+](C)c1
viscosity [mPa·s]
Details	293.15 K	298.15 K	303.15 K	308.15 K	313.15 K	318.15 K	323.15 K
101 kPa	415.9 ± 30	290.8 ± 18	210.1 ± 10	155.6 ± 6.4	119.2 ± 4.2	92.77 ± 2.7	74.24 ± 1.9
101.33 kPa	–	–	–	139.5 ± 2.6	–	–	–

— the CheMixHub viscosity set
